These results are taken from PMC9386018, “A lymphatic-absorbed multi-targeted kinase inhibitor for myelofibrosis therapy” (Nature Communications, 2022).

A short description of series [1]: Compound quantitation in blood and mesenteric lymph nodes. Format: in vivo, mouse. Conditions: mice. How it is done: Whole blood and mesenteric lymph nodes were collected either 30 min or 4 h following compound administration and stored at −20 °C until future processing and analysis by the University of Michigan Pharmacokinetics Core as above, or as outlined below, to determine compound concentrations in each tissue. […] Data was generated from n ≥ 4 individual animals per compound per study group or dose.
Briefly, acetonitrile was added to a final concentration of 60–80% to bone marrow, whole blood, plasma, lymphatic fluid, lymphatic proteo-lipid sub-fractions, or mesenteric lymph node samples for compound extraction. Extraction was performed by shaking and/or bead rupture using a Precellys Evolution tissue homogenizer (Bertin Technologies SAS). […] Optimization of MS and MS/MS parameters for MRM quantitation and maximum sensitivity of individual compounds was performed using SCIEX Analyst software (AB Sciex). […] All LC-MS/MS acquisitions were performed with an independent standard curve for each group of analytes and for each individual run. All solvents utilized were of Optima LC-MS Grade (Fisher Scientific). Data was generated from n ≥ 2 individual animals per compound per study condition or dose.

Series [2] addresses T1, Target kinase isoforms (PI3K, mTOR, RAF, MEK) (Homo sapiens, UniProt O00329).
T1 sequence (O00329 1-1044): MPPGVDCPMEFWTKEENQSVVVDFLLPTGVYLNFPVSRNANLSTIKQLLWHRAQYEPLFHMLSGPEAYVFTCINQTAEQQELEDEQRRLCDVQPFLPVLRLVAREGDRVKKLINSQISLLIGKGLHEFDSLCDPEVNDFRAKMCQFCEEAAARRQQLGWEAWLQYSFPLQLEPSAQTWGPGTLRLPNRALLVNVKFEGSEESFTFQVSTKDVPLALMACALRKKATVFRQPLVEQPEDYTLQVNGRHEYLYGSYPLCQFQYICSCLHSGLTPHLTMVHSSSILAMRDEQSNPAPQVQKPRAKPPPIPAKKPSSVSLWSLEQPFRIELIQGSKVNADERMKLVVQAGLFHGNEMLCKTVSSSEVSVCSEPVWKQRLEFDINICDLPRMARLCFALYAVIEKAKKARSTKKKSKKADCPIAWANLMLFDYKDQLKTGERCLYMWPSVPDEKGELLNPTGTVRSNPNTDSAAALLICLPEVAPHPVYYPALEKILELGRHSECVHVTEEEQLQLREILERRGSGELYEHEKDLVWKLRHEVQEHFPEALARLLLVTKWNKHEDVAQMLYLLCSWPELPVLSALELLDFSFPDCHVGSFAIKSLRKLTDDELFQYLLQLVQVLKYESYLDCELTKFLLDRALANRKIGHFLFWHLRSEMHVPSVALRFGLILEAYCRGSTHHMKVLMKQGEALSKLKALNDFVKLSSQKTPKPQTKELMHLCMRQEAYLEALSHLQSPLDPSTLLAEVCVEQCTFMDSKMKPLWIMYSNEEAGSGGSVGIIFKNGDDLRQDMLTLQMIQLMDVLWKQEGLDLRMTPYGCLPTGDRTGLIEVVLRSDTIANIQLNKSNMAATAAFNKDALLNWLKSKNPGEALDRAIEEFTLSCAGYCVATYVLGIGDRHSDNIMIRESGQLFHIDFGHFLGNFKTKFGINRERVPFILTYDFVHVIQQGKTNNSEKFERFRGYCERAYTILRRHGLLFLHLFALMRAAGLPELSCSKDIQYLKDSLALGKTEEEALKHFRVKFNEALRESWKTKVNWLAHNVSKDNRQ
Put plainly: Target kinase isoforms 10-point IC50 determination (Supplementary Fig. 7). Format: biochemical. Conditions: PI3K delta. From the text: (§1) The average percent kinase inhibition from replicate data was ranked low to high, converted to a compatible identifier format, then input into Coral Human Kinome Visualization software for presentation analysis. […] Scaling of evolutionary distance for PI kinases is only relative and is based on literature analysis[62],[63]. Average percent kinome inhibition values from replicate data are supplied in Source Data file. […] Corrected data was normalized to vehicle treated control values, and dose response percent kinase activity was analyzed by non-linear regression for determination of IC50 values.

The target in series [3] is Target kinase isoforms (PI3K, mTOR, RAF, MEK) (Homo sapiens, UniProt P42336). Described as above. Format: biochemical. The conditions noted are these: PI3K alpha.
Target kinase isoforms (PI3K, mTOR, RAF, MEK) (Homo sapiens, UniProt P42336), sequence (P42336 whole entry, canonical isoform): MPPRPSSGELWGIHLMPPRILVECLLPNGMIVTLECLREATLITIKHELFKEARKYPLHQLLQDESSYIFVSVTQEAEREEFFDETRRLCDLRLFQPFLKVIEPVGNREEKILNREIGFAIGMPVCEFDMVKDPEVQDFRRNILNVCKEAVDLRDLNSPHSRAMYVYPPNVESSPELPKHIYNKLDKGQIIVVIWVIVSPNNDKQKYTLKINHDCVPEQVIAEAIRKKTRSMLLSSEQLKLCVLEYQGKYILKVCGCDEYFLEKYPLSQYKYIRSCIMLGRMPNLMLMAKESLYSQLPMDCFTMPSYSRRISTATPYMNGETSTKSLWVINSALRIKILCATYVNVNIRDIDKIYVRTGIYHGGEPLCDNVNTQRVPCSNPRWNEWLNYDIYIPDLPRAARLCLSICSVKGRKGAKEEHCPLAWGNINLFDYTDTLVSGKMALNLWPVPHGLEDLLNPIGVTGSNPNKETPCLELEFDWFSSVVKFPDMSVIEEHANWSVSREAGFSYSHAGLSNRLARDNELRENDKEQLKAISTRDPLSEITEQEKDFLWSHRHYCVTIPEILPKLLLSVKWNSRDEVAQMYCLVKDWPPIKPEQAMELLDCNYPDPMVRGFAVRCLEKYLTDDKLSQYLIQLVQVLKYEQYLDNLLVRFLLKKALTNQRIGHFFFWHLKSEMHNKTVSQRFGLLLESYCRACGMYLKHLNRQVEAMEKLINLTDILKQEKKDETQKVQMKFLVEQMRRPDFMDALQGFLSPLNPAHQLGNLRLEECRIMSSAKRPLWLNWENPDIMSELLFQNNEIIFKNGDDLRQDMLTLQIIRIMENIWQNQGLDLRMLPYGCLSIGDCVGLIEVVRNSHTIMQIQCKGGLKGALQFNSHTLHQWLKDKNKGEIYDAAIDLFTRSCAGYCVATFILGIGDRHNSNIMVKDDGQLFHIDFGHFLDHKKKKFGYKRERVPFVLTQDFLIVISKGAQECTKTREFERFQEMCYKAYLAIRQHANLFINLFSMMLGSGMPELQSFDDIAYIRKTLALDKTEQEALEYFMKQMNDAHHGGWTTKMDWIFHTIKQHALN
From the text: as §1

Series [4] has as its target Target kinase isoforms (PI3K, mTOR, RAF, MEK) (Homo sapiens, UniProt P42338). The series is described as above. The conditions noted are these: PI3K beta. Format: biochemical.
From the text: as §1

Series [5] has as its target Target kinase isoforms (PI3K, mTOR, RAF, MEK) (Homo sapiens, UniProt P48736). The series is described as above. Format: biochemical. The conditions noted are these: PI3K gamma.
From the text: as §1

Setting [6] is: concentration 0.0187 nM, 18.7 pM.
Setting [7] is: concentration 0.495 nM, 0.000495 µM.
Where [8] appears, read: concentration 4.57 nM, 0.00457 µM.
Where [9] appears, read: concentration 1.52 nM, 0.00152 µM.

Each structure is given as a SMILES string. “And” between values parts separate entries of the source, which are not always exact repeats. Identical values can stand only once.

Target kinase isoforms (PI3K, mTOR, RAF, MEK) (Homo sapiens, UniProt P48736), sequence (P48736 whole entry, canonical isoform): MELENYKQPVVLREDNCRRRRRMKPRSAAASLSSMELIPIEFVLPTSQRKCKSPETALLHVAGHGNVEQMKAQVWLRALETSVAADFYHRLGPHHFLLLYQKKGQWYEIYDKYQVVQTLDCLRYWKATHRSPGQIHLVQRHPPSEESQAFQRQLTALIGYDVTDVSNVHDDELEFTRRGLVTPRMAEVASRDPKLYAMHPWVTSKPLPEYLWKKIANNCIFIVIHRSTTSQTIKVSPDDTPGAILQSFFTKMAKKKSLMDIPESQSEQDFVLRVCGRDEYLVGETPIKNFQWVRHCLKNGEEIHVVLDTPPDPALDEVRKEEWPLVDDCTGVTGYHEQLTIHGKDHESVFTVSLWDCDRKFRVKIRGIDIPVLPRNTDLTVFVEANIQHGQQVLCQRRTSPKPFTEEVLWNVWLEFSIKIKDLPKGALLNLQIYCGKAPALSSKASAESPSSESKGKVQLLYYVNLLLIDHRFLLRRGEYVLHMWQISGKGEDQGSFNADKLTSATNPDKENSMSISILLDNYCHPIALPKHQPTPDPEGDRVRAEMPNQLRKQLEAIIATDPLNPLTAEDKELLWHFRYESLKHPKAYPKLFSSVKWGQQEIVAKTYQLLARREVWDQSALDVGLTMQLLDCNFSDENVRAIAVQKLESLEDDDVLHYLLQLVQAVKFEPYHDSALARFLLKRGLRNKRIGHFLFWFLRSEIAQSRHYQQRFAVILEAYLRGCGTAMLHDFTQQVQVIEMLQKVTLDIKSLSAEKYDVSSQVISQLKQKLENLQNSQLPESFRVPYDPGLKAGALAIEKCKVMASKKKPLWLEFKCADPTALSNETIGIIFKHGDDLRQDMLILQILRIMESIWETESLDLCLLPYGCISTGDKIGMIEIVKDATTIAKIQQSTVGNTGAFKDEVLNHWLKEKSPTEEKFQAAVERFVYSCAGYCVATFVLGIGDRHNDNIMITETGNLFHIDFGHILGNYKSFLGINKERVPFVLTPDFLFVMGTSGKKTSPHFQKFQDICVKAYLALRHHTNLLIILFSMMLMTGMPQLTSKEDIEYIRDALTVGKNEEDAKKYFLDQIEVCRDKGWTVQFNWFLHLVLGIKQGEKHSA
Target kinase isoforms (PI3K, mTOR, RAF, MEK) (Homo sapiens, UniProt P42338), sequence (P42338 whole entry, canonical isoform): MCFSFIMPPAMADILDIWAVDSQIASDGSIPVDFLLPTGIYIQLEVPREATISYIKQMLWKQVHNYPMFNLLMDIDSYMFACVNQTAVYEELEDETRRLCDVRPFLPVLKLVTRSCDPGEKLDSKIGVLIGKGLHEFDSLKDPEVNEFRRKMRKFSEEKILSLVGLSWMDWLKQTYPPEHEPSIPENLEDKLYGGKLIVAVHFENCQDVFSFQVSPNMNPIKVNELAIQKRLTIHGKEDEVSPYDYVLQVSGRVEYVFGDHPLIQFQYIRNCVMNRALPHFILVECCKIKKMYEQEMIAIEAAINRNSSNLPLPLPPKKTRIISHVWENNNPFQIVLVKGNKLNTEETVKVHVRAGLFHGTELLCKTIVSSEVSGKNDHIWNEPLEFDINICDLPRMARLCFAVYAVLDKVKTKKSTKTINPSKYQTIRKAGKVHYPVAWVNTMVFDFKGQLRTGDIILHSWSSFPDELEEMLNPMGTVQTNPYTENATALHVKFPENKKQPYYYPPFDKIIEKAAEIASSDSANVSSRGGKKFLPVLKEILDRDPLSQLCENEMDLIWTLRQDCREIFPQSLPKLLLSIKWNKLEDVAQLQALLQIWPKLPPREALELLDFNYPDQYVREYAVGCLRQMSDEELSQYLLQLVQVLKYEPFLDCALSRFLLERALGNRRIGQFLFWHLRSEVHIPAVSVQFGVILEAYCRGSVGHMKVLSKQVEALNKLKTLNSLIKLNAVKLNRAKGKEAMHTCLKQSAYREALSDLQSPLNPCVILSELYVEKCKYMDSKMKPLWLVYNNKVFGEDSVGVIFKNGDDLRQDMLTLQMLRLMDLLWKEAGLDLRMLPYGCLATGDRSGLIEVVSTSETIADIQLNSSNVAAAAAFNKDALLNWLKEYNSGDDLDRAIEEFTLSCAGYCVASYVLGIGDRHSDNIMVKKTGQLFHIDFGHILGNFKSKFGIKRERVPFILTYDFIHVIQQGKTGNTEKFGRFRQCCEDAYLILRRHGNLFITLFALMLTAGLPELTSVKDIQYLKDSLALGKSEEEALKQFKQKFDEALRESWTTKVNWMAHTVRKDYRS

In the case of `COCCOCCOCCOCCONC(=O)c1ccc(F)c(F)c1Nc1ccc(I)cc1F` [LP5-38], the “uptake in the mesenteric lymph nodes compared to LP5-37” value in series [1] (4 h after oral 100 mg kg^−1) is reported as “reduced uptake”.
As to `O=C(NOCCOCCOCCOCCONC(=O)c1ccc(F)c(F)c1Nc1ccc(I)cc1F)c1ccc(F)c(F)c1Nc1ccc(I)cc1F` [LP5-37], in series [1] (4 h after oral 400 mg kg^−1), the “mesenteric lymph node levels versus blood” value was “significantly higher than in blood”.
`COc1ncc(-c2ccc3nccc(-c4ccnnc4)c3c2)cc1NS(=O)(=O)c1ccc(F)cc1F` [GSK2126458]: the activity at 670 fM in series [2] (concentration 0.00067 nM) is 113%; in series [3] (concentration 0.000670 nM) it was 105%. The “Kinase Activity (%) PI3K delta” value is 102% in series [2] (concentration 0.00067 nM, 670 fM); 108% in series [2] (setting [6]); 16% and 14% and 11% and 8% in series [2] (setting [7]); 6% in series [2] (setting [8]); 6% in series [2] (concentration 1110 nM, 1.11 µM); 6% and 7% in series [2] (concentration 3330 nM, 3.33 µM). The “Kinase Activity (%) PI3K delta” value in series [2] (concentration 10000 nM, 10 µM) is 7% and 0%; in series [2] (concentration […], 2.04 pM), 105%; in series [2] (concentration […], 6.09 pM), 106%. Further, the activity at 18.7 pM was determined as 97% in series [2] (concentration 0.0187 nM) and 103% in series [4] (concentration 0.0187 nM). Besides, the activity at 56.2 pM is 81% in series [2] (concentration 0.0562 nM) and 110% in series [4] (concentration 0.0562 nM). Moreover, the activity at 0.0412 µM was 4% in series [2] (concentration 41.2 nM), 0% in series [3] (concentration 41.2 nM), 9% in series [4] (concentration 41.2 nM) and 0% in series [5] (concentration 41.2 nM). Further, the activity at 0.123 µM was determined as 4% in series [2] (concentration 123 nM), 0% in series [3] (concentration 123 nM), 9% in series [4] (concentration 123 nM) and 0% in series [5] (concentration 123 nM). Besides, the results for the activity at […] in series [2] (concentration 370 nM), in series [3] (concentration 370 nM) and in series [4] (concentration 370 nM) were 4%, 0% and 12%, respectively. Further, the activity at 1.11 µM in series [2] (concentration 1110 nM) was determined as 4%; in series [3] (concentration 1110 nM), 0%; in series [4] (concentration 1110 nM), 9%; in series [5] (concentration 1110 nM), 0%. For the same molecule, the activity at 3.33 µM turned out to be 5% in series [2] (concentration 3330 nM), 11% in series [4] (concentration 3330 nM) and 0% in series [5] (concentration 3330 nM). The figures for the activity at 2.04 pM in series [2] (concentration […]) and in series [4] (concentration […]) were 103% and 107%, respectively. The activity at 6.09 pM in series [2] (concentration […]) amounted to 104%. For the same molecule, the “Kinase Activity (%) PI3K alpha” value in series [3] (concentration 0.00209 nM, 2.09 pM) is 101%; in series [3] (concentration 0.0188 nM, 18.8 pM), 89%; in series [3] (concentration 0.0564 nM, 56.4 pM), 75%; in series [3] (setting [7]) it was 17% and 18% and 16% and 20%; in series [3] (setting [9]), 5% and 6%; in series [3] (setting [8]) it was 1%. For the same molecule, in series [3] (concentration 10000 nM, 10 µM), the “Kinase Activity (%) PI3K alpha” value is 1%. The activity at 18.8 pM in series [3] (concentration 0.0188 nM) is 91%. In series [3] (concentration 0.0564 nM), the activity at 56.4 pM came to 73%. Further, the activity at 0.000495 µM in series [3] (concentration 0.495 nM) came to 15%. Besides, the activity at 0.00152 µM in series [3] (concentration 1.52 nM) amounted to 4%; in series [5] (concentration 1.52 nM), 19%. Also, the “Kinase Activity (%) PI3K beta” value in series [4] (setting [6]) is 108%; in series [4] (concentration 0.0562 nM, 56.2 pM), 106%; in series [4] (setting [7]), 72% and 62% and 60% and 71% and 65% and 84%; in series [4] (setting [9]), 48% and 51% and 47% and 67% and 62%; in series [4] (concentration 41.2 nM, 0.0412 µM) it was 7% and 8% and 10%; in series [4] (concentration 123 nM, 0.123 µM), 6% and 10% and 8% and 7%. Further, the “Kinase Activity (%) PI3K beta” value worked out at 8% in series [4] (concentration 1110 nM, 1.11 µM) and 10% in series [4] (concentration 3330 nM, 3.33 µM). The “Kinase Activity (%) PI3K gamma” value was 24% and 22% and 20% and 21% in series [5] (setting [9]); 1% in series [5] (concentration 370 nM, […]); 5% in series [5] (concentration 10000 nM, 10 µM); 103% in series [5] (concentration […], 6.09 pM).
